Source: US8304422B2, “Compositions and methods for inhibition of the JAK pathway” (Rigel Pharmaceuticals, Inc., priority 2007, dated 2012)

System: Ramos B-Cell Line Stimulated with IL-4
Test: Assay for Ramos B-Cell Line Stimulated with IL-4 (CD23 upregulation, FACS; Example 2)
Assay type: cell-based
Conditions: human Ramos B cells, IL-4 50 units/mL for 20-24 hours, anti-CD23-PE
Source text: One means of assaying for such inhibition is detection of the effect of the 2,4-pyrimidinediamine compounds on the upregulation of downstream gene products. In the Ramos/IL4 assay, B-cells are stimulated with the cytokine Interleukin-4 (IL-4) leading to the activation of the JAK/Stat pathway through phosphorylation of the JAK family kinases, JAK1 and JAK3, which in turn phosphorylate and activate the transcription factor Stat-6. […] To study the effect of inhibitors (e.g., the 2,4-substituted pyrimindinediamine compounds described herein) on the JAK1 and JAK3 kinases, human Ramos B cells are stimulated with human IL-4. 20 to 24 hours post stimulation, cells are stained for upregulation of CD23 and analyzed using flow cytometry (FACS). […] An exemplary assay of this type is described in greater detail in Example 2.
B-cells stimulated with cytokine Interleukin-4 (IL-4) activate the JAK/Stat pathway through phosphorylation of the JAK family kinases, JAK-1 and JAK-3, which in turn phosphorylate and activate the transcription factor Stat-6. […] To study the effect of inhibitors on the JAK family kinases, human Ramos B cells are stimulated with human IL-4.
The Ramos B-cell line was acquired from ATCC (ATCC Catalog No. CRL-1596). The cells were cultured in RPMI 1640 (Cellgro, MediaTech, Inc., Herndon, Va., Cat No. 10-040-CM) with 10% fetal bovine serum (FBS), heat inactivated (JRH Biosciences, Inc, Lenexa, Kans., Cat No. 12106-500M) according to ATCC propagation protocol. Cells were maintained at a density of 3.5×10^5. The day before the experiment, Ramos B-cells were diluted to 3.5×10^5 cells/mL to ensure that they were in a logarithmic growth phase.
Cells were spun down and suspended in RPMI with 5% serum. 5×10^4 cells were used per point in a 96-well tissue culture plate. Cells were pre-incubated with compound or DMSO (Sigma-Aldrich, St. Louis, Mo., Cat No. D2650) vehicle control for 1 hour in a 37° C. incubator.
Cells were then stimulated with IL-4 (Peprotech Inc., Rocky Hill, N.J., Cat No. 200-04) for a final concentration of 50 units/mL for 20-24 hours. Cells were then spun down and stained with anti-CD23-PE (BD Pharmingen, San Diego, Calif., Cat No. 555711) and analyzed by FACS. Detection was performed using a BD LSR I System Flow Cytometer, purchased from Becton Dickinson Biosciences of San Jose, Calif.

| IC50 | SMILES |
| --- | --- |
| 717 nM | Cc1cnc(Nc2ccc3c(c2)nc(C)n3C)nc1Nc1ccc2c(c1)C(NS(C)(=O)=O)CC2 (racemic) [VIII-3, (+/−)-N2-(1,2-Dimethylbenzimidazol-5-yl)-N4-[1-(methylsulfonylamino)indan-6-yl]-5-methyl-2,4-pyrimidinediamine] |
| 614 nM | O=S(=O)(NCc1ccc(Nc2nc(Nc3ccc(F)c(F)c3)ncc2F)cc1)C1CC1 [II-2, N4-(4-cyclopropylsulfonylaminomethyl)phenyl-N2-(3,4-difluoro)phenyl-5-fluoro-2,4-pyrimidinediamine] |
| 116 nM | COc1ccc(Nc2ncc(F)c(Nc3ccc(CNS(=O)(=O)C4CC4)cc3)n2)cc1Cl [II-3, N2-(3-chloro-4-methoxy)phenyl-N4-(4-cyclopropylsulfonylaminomethyl)phenyl-5-fluoro-2,4-pyrimidinediamine] |
| 279 nM | Cc1cnc(Nc2cccc(C(N)=O)c2)nc1Nc1ccc(CNS(=O)(=O)C2CC2)c(Cl)c1 [II-18, N2-(3-aminocarbonyl)phenyl-N4-(3-chloro-4-cyclopropylsulfonylaminomethyl)phenyl-5-methyl-2,4-pyrimidinediamine] |
| 505 nM | Cc1cnc(Nc2cccc(C(N)=O)c2)nc1Nc1ccc(CN(C)S(=O)(=O)C2CC2)cc1 [II-20, N2-(3-aminocarbonyl)phenyl-N4-[4-(N-cyclopropylsulfonyl-N-methyl)aminomethyl]phenyl-5-methyl-2,4-pyrimidinediamine] |
| 280 nM | Cc1cnc(Nc2cccc(C(N)=O)c2)nc1Nc1cccc(CNS(=O)(=O)C2CC2)c1 [II-24, N2-(3-aminocarbonyl)phenyl-N4-(3-cyclopropylsulfonylaminomethyl)phenyl-5-methyl-2,4-pyrimidinediamine] |
| 89200 nM | Cc1cnc(Nc2ccc(C#N)cc2)nc1Nc1ccc(CN(C)S(=O)(=O)C2CC2)cc1 [II-27, N2-(4-cyano)phenyl-N4-[4-(N-cyclopropylsulfonyl-N-methyl)aminomethyl]phenyl-5-methyl-2,4-pyrimidinediamine] |
| 74.7 nM | Cc1cnc(Nc2ccc3[nH]cnc3c2)nc1Nc1ccc(CNS(=O)(=O)C2CC2)cc1 [IV-1, N2-(benzoimidazol-5-yl)-N4-(4-cyclopropylsulfonylaminomethyl)phenyl-5-methyl-2,4-pyrimidinediamine] |
| 44 nM | Cc1cnc(Nc2ccc3[nH]c(C(F)(F)F)nc3c2)nc1Nc1ccc(CNS(=O)(=O)C2CC2)cc1 [IV-2, N4-(4-cyclopropylsulfonylaminomethyl)phenyl-5-methyl-N2-(2-trifluoromethylbenzoimidazol-5-yl)-2,4-pyrimidinediamine] |
| 178 nM | Cc1cnc(Nc2ccc3[nH]c(-c4cccnc4)nc3c2)nc1Nc1ccc(CNS(=O)(=O)C2CC2)cc1 [IV-3, N4-(4-cyclopropylsulfonylaminomethyl)phenyl-5-methyl-N2-[2-(pyridin-3-yl)benzoimidazol-5-yl]-2,4-pyrimidinediamine] |
| 127 nM | Cc1cnc(Nc2ccc3[nH]c(C(C)(C)C)nc3c2)nc1Nc1ccc(CNS(=O)(=O)C2CC2)cc1 [IV-4, N2-(2-tert-butylbenzoimidazol-5-yl)-N4-(4-cyclopropylsulfonylaminomethyl)phenyl-5-methyl-2,4-pyrimidinediamine] |
| 87.3 nM | Cc1cnc(Nc2ccc3[nH]c(-c4cccs4)nc3c2)nc1Nc1ccc(CNS(=O)(=O)C2CC2)cc1 [IV-5, N4-(4-cyclopropylsulfonylaminomethyl)phenyl-5-methyl-N2-[2-(thien-2-yl)benzoimidazol-5-yl]-2,4-pyrimidinediamine] |
| 207 nM | Cc1cnc(Nc2ccc3[nH]c(CN4CCOCC4)nc3c2)nc1Nc1ccc(CNS(=O)(=O)C2CC2)cc1 [IV-6, N4-(4-cyclopropylsulfonylaminomethyl)phenyl-5-methyl-N2-[2-(morpholin-4-yl)methylbenzoimidazol-5-yl]-2,4-pyrimidinediamine] |
| 257 nM | Cc1cnc(Nc2ccc3c(c2)ncn3CCO)nc1Nc1ccc(CNS(=O)(=O)C2CC2)cc1 [IV-8, N4-(4-cyclopropylsulfonylaminomethyl)phenyl-N2-[1-(2-hydroxyethyl)benzoimidazol-5-yl]-5-methyl-2,4-pyrimidinediamine] |
| 242 nM | CS(=O)(=O)N1CCc2cc(Nc3nc(Nc4ccc5nc(C(F)(F)F)[nH]c5c4)ncc3F)ccc21 [VIII-4, 5-Fluoro-N4-[(1-methylsulfonyl)indolin-5-yl]-N2-(2-trifluoromethylbenzimidazol-5-yl)-2,4-pyrimidinediamine] |
| 70.9 nM | Cc1cc(Nc2ncc(F)c(Nc3ccc4c(c3)CCN4S(C)(=O)=O)n2)ccc1N1CCN(C)CC1 [VIII-5] |
| 349 nM | Cc1nc2ccc(Nc3ncc(F)c(Nc4ccc5c(c4)CCN5S(C)(=O)=O)n3)cc2[nH]1 [VIII-6, 5-Fluoro-N4-[(1-methylsulfonyl)indolin-5-yl]-N2-(2-methylbenzimidazol-5-yl)-2,4-pyrimidinediamine] |
| 5110 nM | Nc1cnc(Nc2ccc3cn[nH]c3c2)nc1Nc1cccc(S(N)(=O)=O)c1 [VIII-8, 5-Amino-N4-(3-aminosulfonylphenyl)-N2-(indazoline-6-yl)-2,4-pyrimidinediamine] |

Further lines, the compound ahead of its results:

| SMILES | IC50 |
| --- | --- |
| COc1cc(Nc2ncc(C)c(Nc3ccc4c(c3)C(NS(C)(=O)=O)CC4)n2)cc(OC)c1OC (racemic) [V-1, (+/−)-5-Methyl-N4-[1-(methylsulfonylamino)indan-6-yl]-N2-(3,4,5-trimethoxyphenyl)-2,4-pyrimidinediamine] | 401 nM |
| C#CCNS(=O)(=O)c1cccc(Nc2nc(Nc3cc(OC)c(OC)c(OC)c3)ncc2F)c1 [I-1, 5-Fluoro-N4-[3-(prop-2-ynylaminosulfonyl)phenyl]-N2-(3,4,5-trimethoxyphenyl)-2,4-pyrimidinediamine] | 140 nM |
| C#CCOc1ccc(Nc2ncc(C)c(Nc3ccc(C)c(S(N)(=O)=O)c3)n2)cc1 [I-2, N4-(3-Aminosulfonyl-4-methylphenyl)-5-methyl-N2-[4-(prop-2-ynyloxy)phenyl]-2,4-pyrimidinediamine] | 181 nM |
| C#CCOc1ccc(Nc2ncc(C(F)(F)F)c(Nc3ccc(C)c(S(N)(=O)=O)c3)n2)cc1 [I-3, N4-(3-Aminosulfonyl-4-methylphenyl)-N2-[4-(prop-2-ynyloxy)phenyl]-5-trifluoromethyl-2,4-pyrimidinediamine] | 153 nM |
| C#CCNS(=O)(=O)c1cccc(Nc2nc(Nc3cc(C)c(OC)c(C)c3)ncc2F)c1 [I-4, N2-(3,5-Dimethyl-4-methoxyphenyl)-5-fluoro-N4-[3-(prop-2-ynylaminosulfonyl)phenyl]-2,4-pyrimidinediamine] | 95.5 nM |
| C#CCNS(=O)(=O)c1ccc(Nc2nc(Nc3cc(C)c(OC)c(C)c3)ncc2F)cc1 [I-5, N2-(3,5-Dimethyl-4-methoxyphenyl)-5-fluoro-N4-[4-(prop-2-ynylaminosulfonyl)phenyl]-2,4-pyrimidinediamine] | 31.6 nM |
| CNC(=O)COc1cccc(Nc2ncc(N)c(Nc3ccc(S(N)(=O)=O)cc3)n2)c1 [I-6, 5-Amino-N4-(4-aminosulfonylphenyl)-N2-[3-(N-methylamino)carbonylmethyleneoxyphenyl]-2,4-pyrimidinediamine] | 8800 nM |
| CNC(=O)COc1cccc(Nc2ncc(N)c(Nc3cccc(S(N)(=O)=O)c3)n2)c1 [I-7, 5-Amino-N4-(3-aminosulfonylphenyl)-N2-[3-(N-methylamino)carbonylmethyleneoxyphenyl]-2,4-pyrimidinediamine] | 5820 nM |
| COc1ccc(N(C)c2ncc(N)c(Nc3ccc(S(N)(=O)=O)cc3)n2)cc1 [I-9, 5-Amino-N4-(4-aminosulfonylphenyl)-N2-(4-methoxyphenyl)-N2-methyl-2,4-pyrimidinediamine] | 99600 nM |
| COc1cccc(N(C)c2ncc(N)c(Nc3cccc(S(N)(=O)=O)c3)n2)c1 [I-10, 5-Amino-N4-(3-aminosulfonylphenyl)-N2-(3-methoxyphenyl)-N2-methyl-2,4-pyrimidinediamine] | 64200 nM |
| COc1cccc(N(C)c2ncc(N)c(Nc3ccc(S(N)(=O)=O)cc3)n2)c1 [I-11, 5-Amino-N4-(4-aminosulfonylphenyl)-N2-(3-methoxyphenyl)-N2-methyl-2,4-pyrimidinediamine] | 15900 nM |
| NS(=O)(=O)c1cccc(Nc2nc(Nc3ccc(OCc4ccccn4)cc3)ncc2C(F)(F)F)c1 [I-12, N4-(3-Aminosulfonylphenyl)-N2-[4-(2-pyridinyl)methyleneoxyphenyl]-5-trifluoromethyl-2,4-pyrimidinediamine] | 1110 nM |
| O=S(=O)(NC1CC1)c1ccc(Nc2nc(Nc3ccc(OCc4cccnc4)cc3)ncc2C(F)(F)F)cc1 [I-13, N4-[4-N—(Cyclopropyl)aminosulfonylphenyl]-N2-[4-(3-pyridinyl)methyleneoxyphenyl]-5-trifluoromethyl-2,4-pyrimidinediamine] | 549 nM |
